Measurements as given in patent US7723523B2, “Tetrahydropyridothiophenes” (4SC AG, priority 2004, dated 2010).
pIC50: −log10 of the molar value.

Assays:
[1] = test system: RKO (RKOp27) human colon adenocarcinoma cells; assay: Alamar Blue cell viability assay, anti-proliferative/cytotoxic activity on proliferating RKOp27 cells; format: cell-based; conditions: absence of Ponasterone A, 72 hours incubation, read-out: IC50 RKO p27 proliferating
Procedure, shortened: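 IC50 values come from concentration-effect curves of Alamar Blue fluorescence (544/590 nm), relative to untreated controls set at 100%. Cells were RKOp27, seeded at 4000/well in DMEM with 10% FCS and exposed from 24 h post-seeding for 72 h (37 °C, 5% CO2) to semi-log dilutions, each run in quadruplicate.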

[2] = test system: RKO colon adenocarcinoma cells (RKOp27) arrested by expression of ectopic p27Kip1; assay: Alamar Blue cell viability assay on RKOp27 cells arrested by Ponasterone A-induced p27Kip1 (cell cycle specific mode of action); format: cell-based; conditions: Homo sapiens, RKOp27, 72 h, cells arrested by p27Kip1 induced with 10 μM Ponasterone A, 72 hours incubation, read-out: IC50 RKO p27 arrested
Procedure, shortened: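 Viability measured by Alamar Blue fluorescence (ex 544, em 590 nm) after 72 h, 37 °C compound exposure in quadruplicate, normalized to untreated cells as 100%. Cells were p27Kip1-arrested RKOp27, induced with 10 μM Ponasterone A at seeding; compound added 24 h later.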

pIC50 [2] | Compound | pIC50 [1]
≤ 4.00 | N#Cc1c(NC(=O)/C=C/c2ccco2)sc2c1CCN(C(=O)CCc1cccnc1)C2 [Example 229, (E)-N-[3-Cyano-6-(3-pyridin-3-yl-propanoyl)-4,5,6,7-tetrahydro-thieno[2,3-c]pyridin-2-yl]-3-furan-2-yl-acrylamide] | ≥ 5.70
≤ 4.00 | COc1ccc(CCOC(=O)N2CCc3c(sc(NC(=O)/C=C/c4cccnc4)c3C#N)C2)cc1 [Example 146, 3-Cyano-2-((E)-3-pyridin-3-yl-allanoylamino)-4,7-dihydro-5H-thieno[2,3-c]pyridine-6-carboxylic acid 2-(4-methoxy-phenyl)-ethyl ester] | ≥ 5.70
≤ 4.00 | N#Cc1c(NC(=O)/C=C/c2ccccc2)sc2c1CCN(C(=O)OCCN1CCCC1)C2 [Example 114] | ≥ 5.70
≤ 4.00 | CCOC(=O)N1CCc2c(sc(NC(=O)/C=C/c3ccc(Cl)cc3F)c2C#N)C1 [Example 59, 2-[(E)-3-(4-Chloro-2-fluoro-phenyl)-allanoylamino]-3-cyano-4,7-dihydro-5H-thieno[2,3-c]pyridine-6-carboxylic acid ethyl ester] | ≥ 5.70
≤ 4.00 | COCCOCCOC(=O)N1CCc2c(sc(NC(=O)/C=C/c3ccccc3)c2C#N)C1 [Example 129, 3-Cyano-2-((E)-3-phenyl-allanoylamino)-4,7-dihydro-5H-thieno[2,3-c]pyridine-6-carboxylic acid 2-(2-methoxy-ethoxy)-ethyl ester] | ≥ 5.70
≤ 4.00 | N#Cc1c(NC(=O)/C=C/c2ccco2)sc2c1CCN(C(=O)OCc1cccnc1)C2 [Example 242, 3-Cyano-2-((E)-3-furan-2-yl-allanoylamino)-4,7-dihydro-5H-thieno[2,3-c]pyridine-6-carboxylic acid pyridin-3-ylmethyl ester] | ≥ 5.70
≤ 4.00 | CC(C)(C)OC(=O)N1CCc2c(sc(NC(=O)/C=C/c3ccoc3)c2C#N)C1 [Example 55, 3-Cyano-2-((E)-3-furan-3-yl-allanoylamino)-4,7-dihydro-5H-thieno[2,3-c]pyridine-6-carboxylic acid tert-butyl ester] | ≥ 5.70
≤ 4.00 | N#Cc1c(NC(=O)/C=C/c2ccccc2)sc2c1CCN(C(=O)CCCc1c[nH]c3ccccc13)C2 [Example 172, (E)-N-[3-Cyano-6-(4-1H-indol-3-yl-butanoyl)-4,5,6,7-tetrahydro-thieno[2,3-c]pyridin-2-yl]-3-phenyl-acrylamide] | ≥ 5.70
≤ 4.00 | CC(=O)OCC(=O)N1CCc2c(sc(NC(=O)/C=C/c3ccccc3)c2C#N)C1 [Example 189, Acetic acid 2-[3-cyano-2-((E)-3-phenyl-allanoylamino)-4,7-dihydro-5H-thieno[2,3-c]pyridin-6-yl]-2-oxo-ethyl ester] | ≥ 5.70
≤ 4.00 | N#Cc1c(NC(=O)/C=C/c2cccnc2)sc2c1CCN(C(=O)OCc1ccccn1)C2 [Example 149, 3-Cyano-2-((E)-3-pyridin-3-yl-allanoylamino)-4,7-dihydro-5H-thieno[2,3-c]pyridine-6-carboxylic acid pyridin-2-ylmethyl ester] | ≥ 5.70
≤ 4.00 | N#Cc1c(NC(=O)/C=C/c2cccnc2)sc2c1CCN(C(=O)Cc1cccnc1)C2 [Example 205, (E)-N-[3-Cyano-6-(2-pyridin-3-yl-ethanoyl)-4,5,6,7-tetrahydro-thieno[2,3-c]pyridin-2-yl]-3-pyridin-3-yl-acrylamide] | ≥ 5.70
≤ 4.30 | CCCOC(=O)N1CCc2c(sc(NC(=O)/C=C/c3cccnc3)c2C#N)C1 [Example 145, 3-Cyano-2-((E)-3-pyridin-3-yl-allanoylamino)-4,7-dihydro-5H-thieno[2,3-c]pyridine-6-carboxylic acid propyl ester] | ≥ 6.30
< 4.00 | CCCC(=O)N1CCc2c(sc(NC(=O)/C=C/c3ccccc3)c2C#N)C1 [Example 33, (E)-N-(6-Butyryl-3-cyano-4,5,6,7-tetrahydro-thieno[2,3-c]pyridin-2-yl)-3-phenyl-acrylamide] | ≥ 5.70
≤ 4.00 | CCOC(=O)N1CCc2c(sc(NC(=O)/C=C/c3ccccn3)c2C#N)C1 [Example 100, 3-Cyano-2-((E)-3-pyridin-2-yl-allanoylamino)-4,7-dihydro-5H-thieno[2,3-c]pyridine-6-carboxylic acid ethyl ester] | ≥ 5.70
≤ 4.00 | COC(=O)COC(=O)N1CCc2c(sc(NC(=O)/C=C/c3ccccc3)c2C#N)C1 [Example 133, 3-Cyano-2-((E)-3-phenyl-allanoylamino)-4,7-dihydro-5H-thieno[2,3-c]pyridine-6-carboxylic acid methoxycarbonylmethyl ester] | ≥ 5.70
≤ 4.00 | CCOC(=O)N1CCc2c(sc(NC(=O)/C=C/c3cccc(C)c3C)c2C#N)C1 [Example 86, 3-Cyano-2-[(E)-3-(2,3-dimethyl-phenyl)-allanoylamino]-4,7-dihydro-5H-thieno[2,3-c]pyridine-6-carboxylic acid ethyl ester] | ≥ 5.70
≤ 4.00 | COCCOC(=O)N1CCc2c(sc(NC(=O)/C=C/c3cccnc3)c2C#N)C1 [Example 167, 3-Cyano-2-((E)-3-pyridin-3-yl-allanoylamino)-4,7-dihydro-5H-thieno[2,3-c]pyridine-6-carboxylic acid 2-methoxy-ethyl ester] | ≥ 5.70
≤ 4.00 | CCOC(=O)N1CCc2c(sc(NC(=O)/C=C/c3ccccc3OC(F)F)c2C#N)C1 [Example 231, 3-Cyano-2{(E), 3-[2-(1,1-difluoro-methoxy)-phenyl]-allanoylamino}-4,7-dihydro-5H-thieno[2,3-c]pyridine-6-carboxylic acid ethyl ester] | ≥ 5.70
≤ 4.00 | CCOC(=O)N1CCc2c(sc(NC(=O)/C=C/c3ccc(OCC)cc3)c2C#N)C1 [Example 60, 3-Cyano-2-[(E)-3-(4-ethoxy-phenyl)-allanoylamino]-4,7-dihydro-5H-thieno[2,3-c]pyridine-6-carboxylic acid ethyl ester] | ≥ 5.70
≤ 4.00 | CCOc1ccccc1/C=C/C(=O)Nc1sc2c(c1C#N)CCN(C(=O)Cc1cccnc1)C2 [Example 219, (E)-N-[3-Cyano-6-(2-pyridin-3-yl-ethanoyl)-4,5,6,7-tetrahydro-thieno[2,3-c]pyridin-2-yl]-3-(2-ethoxy-phenyl)-acrylamide] | ≥ 5.70
≤ 4.00 | CCOC(=O)N1CCc2c(sc(NC(=O)/C=C/c3cccc4c3OC(F)(F)O4)c2C#N)C1 [Example 230, 3-Cyano-2-[(E)-3-(2,2-difluoro-benzo[1,3]dioxol-4-yl)-allanoylamino]-4,7-dihydro-5H-thieno[2,3-c]pyridine-6-carboxylic acid ethyl ester] | ≥ 5.70
≤ 4.00 | COc1ccccc1/C=C/C(=O)Nc1sc2c(c1C#N)CCN(C(=O)OCc1ccccn1)C2 [Example 138, 3-Cyano-2-[(E)-3-(2-methoxy-phenyl)-allanoylamino]-4,7-dihydro-5H-thieno[2,3-c]pyridine-6-carboxylic acid pyridin-2-ylmethyl ester] | ≥ 5.70
≤ 4.30 | N#Cc1c(NC(=O)/C=C/c2cccnc2)sc2c1CCN(C(=O)OCCCc1cccnc1)C2 [Example 157, 3-Cyano-2-((E)-3-pyridin-3-yl-allanoylamino)-4,7-dihydro-5H-thieno[2,3-c]pyridine-6-carboxylic acid 3-pyridin-3-yl-propyl ester] | ≥ 6.30
≤ 4.00 | N#Cc1c(NC(=O)/C=C/c2cccnc2)sc2c1CCN(C(=O)OCc1ccccc1)C2 [Example 144, 3-Cyano-2-((E)-3-pyridin-3-yl-allanoylamino)-4,7-dihydro-5H-thieno[2,3-c]pyridine-6-carboxylic acid benzyl ester] | ≥ 5.70
≤ 4.00 | CCOC(=O)N1CCc2c(sc(NC(=O)/C=C/c3ccc(F)cc3C)c2C#N)C1 [Example 89, 3-Cyano-2-[(E)-3-(4-fluoro-2-methyl-phenyl)-allanoylamino]-4,7-dihydro-5H-thieno[2,3-c]pyridine-6-carboxylic acid ethyl ester] | ≥ 5.70
≤ 4.30 | CCOc1ccccc1/C=C/C(=O)Nc1sc2c(c1C#N)CCN(C(=O)OC(C)(C)C)C2 [Example 54, 3-Cyano-2-[(E)-3-(2-ethoxy-phenyl)-allanoylamino]-4,7-dihydro-5H-thieno[2,3-c]pyridine-6-carboxylic acid tert-butyl ester] | ≥ 6.30
< 4.00 | CCSC(=O)N1CCc2c(sc(NC(=O)/C=C/c3ccccc3)c2C#N)C1 [Example 35, 3-Cyano-2-((E)-3-phenyl-allanoylamino)-4,7-dihydro-5H-thieno[2,3-c]pyridine-6-carbothioic acid S-ethyl ester] | ≥ 5.70
≤ 4.00 | COCCOCC(=O)N1CCc2c(sc(NC(=O)/C=C/c3ccco3)c2C#N)C1 [Example 226, (E)-N-{3-Cyano-6-[2-(2-methoxy-ethoxy)ethanoyl]-4,5,6,7-tetrahydro-thieno[2,3-c]pyridin-2-yl}-3-furan-2-yl-acrylamide] | ≥ 5.70

Compound | pIC50 [2] | pIC50 [1]
CC(C)(C)OC(=O)N1CCc2c(sc(NC(=O)/C=C/c3ccccc3)c2C#N)C1 [Example 2, N-(6-tert-Butoxycarbonyl-3-cyano-4,5,6,7-tetrahydro-thieno[2,3-c]pyridin-2-yl)-3-phenyl-acrylamide] | < 4.00 | ≥ 5.70
